# Test results published in patent US5756813A, “Hindered aromatic ester compounds useful as anti-viral agents” (Uniroyal Chemical Ltd/Uniroyal Chemical Ltee, priority 1996, dated 1998).
# Several values for one entry are separate records, joined by “and”; a condition that tells them apart may be missing. Equal values may be shown once. Read-outs that look alike come from different tables or passages of the source.
# Legend:
# [1] = tested on: T4 lymphocytes (CEM cell line); assay: Toxicity to uninfected T4 lymphocytes (CEM cell line): 50% inhibition of cell growth (second blank); assay type: cell-based, human; settings: uninfected CEM cells, no HIV-1, cytotoxicity, replicate tests, read-out: IC50 (concentration that results in 50% inhibition of cell growth)
# Protocol: (§1) 1) The test compound was dissolved in dimethyl sulfoxide and diluted 1:100 in cell culture medium before serial half-log10 dilutions were prepared. T4 lymphocytes (CEM cell line) were then added to the cell culture medium, and, finally, after a brief interval, HIV-1 was added, resulting in a 1:200 final dilution of the test compound. Uninfected cells in the cell culture medium containing the test compound (i.e., minus HIV-1) were used as a toxicity control, and infected cells in the cell culture medium without the test compound and uninfected cells in the cell culture medium without the test compound, were used as basic controls.
# (§2) 2) The cultures were incubated at 37° C. in a 5% carbon dioxide atmosphere for 6 days.
# (§3) 3) The tetrazolium salt, XTT, was added to all wells, and the cultures were then incubated to allow formazan color development by viable cells.
# (§4) 4) Individual wells were analyzed spectrophotometrically to quantitate formazan production, and were also viewed microscopically for detection of viable cells and confirmation of protective activity.
# (§5) 5) Virus-infected cells exposed to the test compound were compared with noninfected cells exposed to the test compound, and with other appropriate controls (infected cells not exposed to the test compound and noninfected cells not exposed to the test compound, wells containing only the test compound in the cell culture medium, and so on) on the same plate. These are the first and second blanks described below.
# In the second blank, the T4 lymphocytes in cell culture medium and the test compound (with no HIV-1) were incubated together to measure the toxicity of the drug to the cellline. The viability of the cells was measured as a function of concentration of the compound, after incubation for seven days. The concentration of the test compound that results in 50% inhibition of cell growth is defined as its IC50.
# (§6) The compounds were tested to determine their reduction of HIV cytopathic effect on the human cell line CEM. Tests were done by innoculating these cell lines in-well (IW), i.e., the test compound and CEM cells were mixed on a test plate and the virus was added a short time later.
# [2] = tested on: HIV-1; assay: NCI in vitro anti-HIV screen: reduction of HIV-1 cytopathic effect in T4 lymphocytes (CEM cell line), XTT/formazan readout; assay type: cell-based, HIV-1 (in human cell line CEM); settings: replicate tests; for TI50 (therapeutic index, IC50/EC50): calculated as IC50/EC50, CEM cells
# Protocol: Representative compounds of this invention were tested for anti-viral activity by subjecting them to standard National Cancer Institute ("NCI") in vitro screening procedures. Two blanks were run with each test. The NCI test for agents active against HIV is designed to detect agents acting at any stage of the virus reproduction cycle.
# In the test assay, small amounts of HIV are added to T4 lymphocyte cells. The assay measures the amount of T4 lymphocytes "killed" by HIV cytolysis. Since a complete cycle of viral reproduction is necessary to "kill" the T4 lymphocyte cells, agents that interfere with viral reproduction will protect the cells from cytolysis.
# The NCI system is automated in several features to accomodate large numbers of candidate agents and is generally designed to detect anti-HIV activity. […] All tests are compared with at least one positive (AZT-treated) control done at the same time under identical conditions.
# as §1, §2, §3, §4, §5
# 6) Data were reviewed in comparison with other tests done at the same time and a determination concerning activity was made. In the first blank, HIV and T4 lymphocytes in cell culture medium, were incubated together to measure the infectivity of the virus. The viability of the cells was measured after holding for six or seven days. In an "effective" test, most cells were infected before the holding period was complete.
# Finally, the protective effects of the test compounds were measured. Each cell culture and test compound were incubated with the virus and the viability of the cells was measured as a function of compound concentration after incubation for six or seven days. The concentration of the test compound that results in 50% "control," i.e., a 50% reduction of the viral cytopathic effect, is defined as its EC50. The therapeutic index TI50 was calculated as IC50 /EC50.
# Concentrations of test compounds required for between 20 and 50% reduction of the viral cytopathic effect can also be determined. Such compounds are classified as moderately active.
# as §6
# [3] = HIV-1 infected CEM cells, in-well (IW) inoculation, six or seven days, read-out: EC50 (concentration that results in 50% reduction of the viral cytopathic effect)
# [4] = Human immunodeficiency virus 1, CCRF-CEM, 168 h, HIV-1 infected CEM cells, in-well (IW) inoculation, six or seven days, read-out: EC50 (concentration that results in 50% reduction of the viral cytopathic effect)
SMILES,"IC50 ([1]; Homo sapiens, CCRF-CEM)",IC50 [1],"EC50 [2, 3]","TI50 (therapeutic index, IC50/EC50) [2]","EC50 ([2]; Human immunodeficiency virus 1, CCRF-CEM, 168 h, read-out: EC50 (concentration that results in 50% reduction of the viral cytopathic effect), HIV-1 infected CEM cells, in-well (IW) inoculation, six or seven days)","EC50 ([2]; read-out: EC50 (concentration that results in 50% reduction of the viral cytopathic effect), HIV-1 infected CEM cells, in-well (IW) inoculation, six or seven days)","EC50 [2, 4]"
Cc1occc1C(=O)Nc1ccc(Cl)c(C(=O)OC(C)C2CCCC2)c1 (stereo not drawn) [Compound 14],7.7 µM,> 14 µM,0.84 µM and 1.1 µM and 0.77 µM and 2.3 µM and 1.7 µM,9 and > 13 and > 18 and > 6 and > 8,–,–,–
"CC1CCCCC1OC(=O)c1cc(NC(=O)c2ccccc2)ccc1Cl (stereo not drawn) [Compound 9, 2-methylcyclohexyl 2-chloro-5-(benzoylamino)benzoate]",14.2 µM,12.6 µM and 15.3 µM and 14.5 µM,–,31 and 28 and 65,4.65 µM,4.47 µM and 2.37 µM,–
CC(OC(=O)c1cc(NC(=S)c2ccccc2)ccc1Cl)C1CC1 (stereo not drawn) [Compound 13],> 38 µM,–,2.1 µM and 2.2 µM and 0.79 µM and 0.72 µM,> 18 and > 17 and > 48 and > 52,–,–,–
CC1CCC(OC(=O)c2cc(NC(=O)c3ccccc3)ccc2Cl)C1 (stereo not drawn) [Compound 7],19 µM,11 µM and 17 µM and 14 µM,5.8 µM and 3.6 µM and 6.1 µM,3 and 2 and 5,–,–,5.7 µM
Cc1occc1C(=S)Nc1ccc(Cl)c(C(=O)OC(C)C2CC2)c1 (stereo not drawn) [Compound 16],> 20 µM,–,–,> 440 and > 240 and > 1600,–,–,–
CC1=C(C(=O)Nc2ccc(Cl)c(C(=O)OC3CCCCC3C)c2)SCCO1 (stereo not drawn) [Compound 6],> 24 µM,14 µM and 20 µM,–,> 1 and > 18 and 19 and 18,–,–,–
CC1(OC(=O)c2cc(NC(=O)c3ccccc3)ccc2Cl)CCCC1 [Compound 1],41.8 µM,49.5 µM and 32.7 µM and 32 µM,11.5 µM and 15.2 µM and 17.6 µM,2 and 4,–,–,17.3 µM
CC(OC(=O)c1cc(NC(=S)c2ccccc2)ccc1Cl)C1CCCC1 (stereo not drawn) [Compound 12],> 14 µM,–,0.23 µM and 0.27 µM,> 48 and > 60 and > 50,–,–,0.28 µM
CC1CCC(OC(=O)c2cc(NC(=S)c3ccccc3)ccc2Cl)C1 (stereo not drawn) [Compound 8],14.6 µM,13.5 µM and 14.8 µM and 13.1 µM,0.195 µM and 0.184 µM and 0.181 µM,68 and 69 and 80 and 72,–,–,0.213 µM
Cc1ccccc1C(=O)Nc1ccc(Cl)c(C(=O)OC2CCCCC2C)c1 (stereo not drawn) [Compound 10],19.7 µM,16.9 µM and 17.1 µM and 16.6 µM,2.39 µM and 1.75 µM and 1.3 µM and 1.13 µM,8 and 10 and 13 and 15,–,–,–
CC(OC(=O)c1cc(NC(=O)c2cccn2C)ccc1Cl)C1CC1 (stereo not drawn) [Compound 17],> 54 µM,–,5.3 µM and 9.7 µM and 5 µM and 4.1 µM,> 10 and > 6 and > 11 and > 13,–,–,–
CC1CCCCC1OC(=O)c1cc(NC(=S)c2ccccc2)ccc1Cl (stereo not drawn) [Compound 5],16 µM,14.1 µM and 13.6 µM and 13.4 µM,0.175 µM and 0.199 µM and 0.0791 µM and 0.126 µM,92 and 71 and 172 and 107,–,–,–
CC1(OC(=O)c2cc(NC(=S)c3ccccc3)ccc2Cl)CCCC1 [Compound 2],29.4 µM,28.8 µM and 31 µM and 32 µM,0.216 µM and 0.232 µM and 0.398 µM and 0.598 µM,137 and 124 and 78 and 54,–,–,–
Cc1ccccc1C(=S)Nc1ccc(Cl)c(C(=O)OC2CCCCC2C)c1 (stereo not drawn) [Compound 11],> 9.4 µM,–,5.4 µM and 4.4 µM,> 2,–,–,5 µM
Cc1occc1C(=O)Nc1ccc(Cl)c(C(=O)OC(C)C2CC2)c1 (stereo not drawn) [Compound 15],> 21 µM,–,1.4 µM and 2.5 µM and 1.1 µM,> 14 and > 8 and > 19,–,–,–
CC1CCCC1OC(=O)c1cc(NC(=S)c2ccccc2)ccc1Cl (stereo not drawn) [Compound 3],14.1 µM,12.2 µM and 13.8 µM,0.0867 µM and 0.0783 µM and 0.101 µM,146 and 141 and 180 and 136,–,–,0.0967 µM
CC1CCCC(C)C1OC(=O)c1cc(NC(=S)c2ccccc2)ccc1Cl (stereo not drawn) [Compound 4],> 13 µM,–,0.94 µM and 2.1 µM and 0.95 µM and 0.37 µM,> 14 and > 6 and > 35,–,–,–
